Laboratory results: ChEMBL document CHEMBL1155870, “Design and synthesis of novel oxazole containing 1,3-dioxane-2-carboxylic acid derivatives as PPAR alpha/gamma dual agonists” (Bioorg Med Chem, 2008)
Active and inactive are the calls of the source. No cut-off for these calls is given here.

Columns and labels:
[1] = target: T1, Peroxisome proliferator-activated receptor alpha (Homo sapiens, UniProt Q07869); test: Agonist activity at PPARalpha expressed in human HepG2 cells assessed as induction of receptor transactivation by reporter gene assay relative to control; assay type: functional, cell-based
T1 sequence (Q07869 whole entry): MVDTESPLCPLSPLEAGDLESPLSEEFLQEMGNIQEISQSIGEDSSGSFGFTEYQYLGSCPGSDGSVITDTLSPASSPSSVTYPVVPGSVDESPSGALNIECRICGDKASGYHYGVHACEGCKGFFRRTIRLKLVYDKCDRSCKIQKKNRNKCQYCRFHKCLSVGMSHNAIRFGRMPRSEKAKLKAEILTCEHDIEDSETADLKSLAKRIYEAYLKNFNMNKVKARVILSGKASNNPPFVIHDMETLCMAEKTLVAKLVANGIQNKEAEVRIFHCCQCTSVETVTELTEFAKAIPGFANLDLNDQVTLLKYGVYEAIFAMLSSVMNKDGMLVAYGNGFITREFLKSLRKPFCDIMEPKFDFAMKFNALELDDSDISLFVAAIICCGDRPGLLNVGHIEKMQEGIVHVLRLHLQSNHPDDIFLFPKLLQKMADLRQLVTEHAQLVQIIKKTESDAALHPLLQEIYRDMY

[2] = target: T2, Peroxisome proliferator-activated receptor alpha (Homo sapiens) (UniProt Q07869); test: Agonist activity at PPARalpha expressed in human HepG2 cells at 10 uM assessed as induction of receptor transactivation by reporter gene assay relative to control; assay type: functional, cell-based
T2 sequence (whole entry): T1 sequence (Q07869 whole entry)

[3] = target: T3, Peroxisome proliferator-activated receptor gamma (Homo sapiens, UniProt P37231)
T3 sequence (P37231 whole entry): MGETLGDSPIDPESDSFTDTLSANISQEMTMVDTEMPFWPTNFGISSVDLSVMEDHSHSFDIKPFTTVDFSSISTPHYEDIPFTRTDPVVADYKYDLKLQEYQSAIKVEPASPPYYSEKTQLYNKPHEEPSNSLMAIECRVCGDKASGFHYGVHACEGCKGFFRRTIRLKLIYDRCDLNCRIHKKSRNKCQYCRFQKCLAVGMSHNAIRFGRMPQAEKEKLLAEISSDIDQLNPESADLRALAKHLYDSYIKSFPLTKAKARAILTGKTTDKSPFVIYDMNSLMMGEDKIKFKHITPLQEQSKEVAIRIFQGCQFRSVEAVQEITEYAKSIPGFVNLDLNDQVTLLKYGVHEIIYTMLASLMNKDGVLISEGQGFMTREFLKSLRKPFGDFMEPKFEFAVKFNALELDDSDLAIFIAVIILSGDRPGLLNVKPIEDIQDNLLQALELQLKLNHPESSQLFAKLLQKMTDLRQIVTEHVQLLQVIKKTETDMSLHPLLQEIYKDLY
Description: Agonist activity at PPARgamma expressed in human HepG2 cells assessed as induction of receptor transactivation by reporter gene assay relative to control

Rattus norvegicus [4] = test: Hypolipidemic activity in Zucker diabetic fa/fa rat assessed as reduction in total cholesterol level at 3 mg/kg/day, po for 14 days; assay type: functional; parameters: scale not given: the % may be the effect or the level left
Mus musculus [5] = test: Hypolipidemic activity in db/db mouse assessed as reduction in triglyceride level at 3 mg/kg/day, po for 6 days; assay type: functional; parameters: scale not given: the % may be the effect or the level left
Rattus norvegicus [6] = test: Hypoglycemic activity in Zucker diabetic fa/fa rat assessed as improvement in glucose AUC at 3 mg/kg/day, po for 14 days; assay type: functional
[7] = Cmax in Wistar rat at 30 mg/kg, po; assay type: ADME, organism-based; parameters: dose 30 mg/kg, route oral; details: in vivo
Rattus norvegicus [8] = test: Hypolipidemic activity in Zucker diabetic fa/fa rat assessed as reduction in triglyceride level at 3 mg/kg/day, po for 14 days; assay type: functional; parameters: scale not given: the % may be the effect or the level left
Mus musculus [9] = test: Hypoglycemic activity in db/db mouse assessed as reduction in plasma glucose level at 3 mg/kg/day, po for 6 days; assay type: functional; parameters: scale not given: the % may be the effect or the level left
[10] = AUC (0 to infinity) in Wistar rat at 30 mg/kg, po; assay type: ADME, organism-based; parameters: time infinity, dose 30 mg/kg, route oral; details: plasma
Rattus norvegicus [11] = test: Insulin sensitizing activity in Zucker diabetic fa/fa rat assessed as reduction in fasted insulin level at 3 mg/kg/day, po for 14 days; assay type: functional; parameters: scale not given: the % may be the effect or the level left
[12] = Half life in Wistar rat at 30 mg/kg, po; assay type: ADME, organism-based; parameters: dose 30 mg/kg, route oral; details: in vivo
[13] = Tmax in Wistar rat at 30 mg/kg, po; assay type: ADME, organism-based; parameters: dose 30 mg/kg, route oral; details: in vivo
Mus musculus [14] = test: Hypoglycemic activity in db/db mouse assessed as reduction in plasma glucose level at 30 mg/kg/day, po for 6 days; assay type: functional, organism-based; parameters: route oral; scale not given: the % may be the effect or the level left

Structure (SMILES)	EC50 [1] [nM]	fold change (FC) [2]	EC50 [3] [nM]	further results
Cc1ccc(-c2nc(COc3ccc(C[C@H]4CO[C@@](C)(C(=O)O)OC4)cc3)c(C)o2)cc1	0.072	8.2	15	Activity (Rattus norvegicus [4]): 30%; Activity (Mus musculus [5]): 50%; Activity (Rattus norvegicus [6]): 51%; Cmax [7]: 54 µg/mL; Activity (Rattus norvegicus [8]): 71%; Activity (Mus musculus [9]): 57%; AUC(0-inf) [10]: 351 µg·h/mL; Activity (Rattus norvegicus [11]): 77%; half-life [12]: 2.7 h; Tmax [13]: 1.7 h
CCO[C@@H](Cc1ccc(OCCc2ccc(OS(C)(=O)=O)cc2)cc1)C(=O)O [TESAGLITAZAR]	–	–	–	Activity (Rattus norvegicus [4]): 16%; Activity (Mus musculus [5]): 60%; Activity (Rattus norvegicus [6]): 51%; Activity (Rattus norvegicus [8]): 67%; Activity (Mus musculus [9]): 54%; Activity (Rattus norvegicus [11]): 91%
Cc1cccc(Nc2cc(Cl)nc(SCC(=O)O)n2)c1C	–	4.4	–	–
Cc1oc(C(C)(C)C)nc1COc1ccc(C[C@H]2CO[C@@](C)(C(=O)O)OC2)cc1	–	2.3	–	–
CN(CCOc1ccc(CC2SC(=O)NC2=O)cc1)c1ccccn1 (stereo not given) [ROSIGLITAZONE]	–	–	–	Activity (Mus musculus [14]): 54%
Cc1ccc(-c2nc(CCOc3ccc([C@H]4CO[C@@](C)(C(=O)O)OC4)cc3)c(C)o2)cc1	–	–	–	Activity [2]: inactive
Cc1ccc(-c2nc(COc3ccc(C[C@H]4CO[C@@](C)(C(=O)O)OC4)cc3)c(C)o2)s1	0.6	5.6	19.8	–
Cc1ccc(-c2nc(CCOc3ccc(C[C@H]4CO[C@@](C)(C(=O)O)OC4)cc3)c(C)o2)s1	0.03	6.8	239	–

Now from value to compound, other results behind:

EC50 [1] [nM]	fold change (FC) [2]	EC50 [3] [nM]	Structure (SMILES)	further results
1.09	6.5	96	Cc1oc(-c2ccccc2)nc1COc1ccc(C[C@H]2CO[C@@](C)(C(=O)O)OC2)cc1	–
0.272	5.3	4100	Cc1oc(-c2ccccc2)nc1CCOc1ccc(C[C@H]2CO[C@@](C)(C(=O)O)OC2)cc1	–
4.2	5.8	5010	Cc1oc(C(C)(C)C)nc1CCOc1ccc(C[C@H]2CO[C@@](C)(C(=O)O)OC2)cc1	–
–	1.8	–	Cc1ccc(-c2nc(CCCOc3ccc(C[C@H]4CO[C@@](C)(C(=O)O)OC4)cc3)c(C)o2)cc1	–
–	2.7	–	Cc1ccc(-c2nc(COc3ccc([C@H]4CO[C@@](C)(C(=O)O)OC4)cc3)c(C)o2)cc1	–
0.089	6.3	1380	Cc1ccc(-c2nc(CCOc3ccc(C[C@H]4CO[C@@](C)(C(=O)O)OC4)cc3)c(C)o2)cc1	–
–	3	–	Cc1oc(-c2ccccc2)nc1COc1ccc([C@H]2CO[C@@](C)(C(=O)O)OC2)cc1	–
–	3	–	Cc1oc(-c2ccccc2)nc1CCOc1ccc([C@H]2CO[C@@](C)(C(=O)O)OC2)cc1	–
